Like-named read-outs stand apart in the source and are kept apart here.
Assays:
HeLa cells = assay: Anti-carcinogenesis-promoter action: inhibition of TPA-promoted phospholipid synthesis (32Pi uptake) in HeLa cells; format: cell-based; conditions: Homo sapiens, read-out: Inhibition (%) of cell phospholipid synthesis promotion by TPA
Procedure: A sample (50 μg/ml) was added to HeLa cells on the second day of cultivation. After 24 hours, TPA (5×10^-8 M) and ^32 Pi (50 μci/culture) were added at the same time. After 4 hours, a phospholipid fraction was extracted to determine the radioactivity of ^32 Pi taken in the fraction.

[1] = tested on: mouse skin two-stage carcinogenesis; assay: Inhibition of promotion stage of mouse skin in vivo two-stage carcinogenesis (DMBA/TPA); set-up: species or system ICR female mice; conditions: 1 mg applied, twice a week, 1 μg TPA
Procedure: A compound was examined whether it could inhibit the promotion stage of mouse skin in vivo two-stage carcinogenesis. More particularly, a group of 15 ICR female mice was tested by once applying 100 μg of DMBA as an initiator to the skin of each mouse for initiation of carcinogenesis and then applying a test solution (identified below) twice a week. Inhibition of carcinogenesis was examined during the test which continued for 18 weeks in total. The promoter used was TPA.
1 mg of compound (1) applied

[2] = Solubility of compound (1); format: physicochemical
in vivo [3] = assay: in vivo; set-up: species or system mice; conditions: mouse, po
[4] = tested on: pancreatic carcinoma cells PANC-1; assay: Inhibition against other carcinoma cells: PANC-1; format: cell-based, human; conditions: PANC-1, 50 μg/ml
Procedure: (§1) Tested were three types of human carcinoma cells, pancreatic carcinoma cells PANC-1, cervical carcinoma cells HeLa, and neuroblastoma cells GOTO. For each type, about 2×10^5 cells were spread and cultured in a dish having a diameter of 3.5 cm. After one day, compound (1) was added to the culture in a concentration of 50 μg/ml. The number of cells was counted after two days.

neuroblastoma cells GOTO = assay: Inhibition against other carcinoma cells: GOTO; format: cell-based, human; conditions: 50 μg/ml
Procedure: as §1

[5] = tested on: cervical carcinoma cells HeLa; assay: Inhibition against other carcinoma cells: HeLa; format: cell-based, human; conditions: 50 μg/ml
Procedure: as §1

[6] = tested on: gastric carcinoma cells HGC-27; assay: Inhibition against gastric carcinoma cells with time; format: cell-based; conditions: 25 μg/ml, number of cells with time
Procedure: In a dish having a diameter of 3.5 cm, about 2×10^4 gastric carcinoma cells HGC-27 were spread and cultured. After one day, compound (1) was added to the culture in a concentration of 25 μg/ml and the number of cells was counted with the lapse of time. The results are shown in FIG. 5 in which the number of cells is plotted relative to the culturing time.

in vivo [7] = assay: in vivo; set-up: species or system rats; conditions: rat, po
[8] = tested on: gastric carcinoma cells HGC-27; assay: Inhibition against gastric carcinoma cells in varying concentrations; format: cell-based; conditions: two days
Procedure: In a dish having a diameter of 3.5 cm, about 2×10^5 gastric carcinoma cells HGC-27 were spread and cultured. After one day, compound (1) was added to the culture in varying concentrations of 5, 10, 25, 50, and 75 μg/ml. The number of cells was counted after two days. The results are shown in FIG. 6 in which the number of cells is plotted relative to the concentration of compound (1).

[9] = sample 50 μg/ml, TPA 5×10^-8 M, HeLa cells
[10] = Homo sapiens, 48 h, two days, read-out: Number of cells, Test group/Control

Q: Which inhibition at 50 µg/mL (HeLa cells; [9]) does the source give for CCCCCc1oc(C)c(OC)c(=O)c1OC [Compound (2), 6-methyl-3,5-dimethoxy-2-pentyl-4H-pyran-4-one] here?
A: Its inhibition at 50 µg/mL is 65.3%.

Q: With CCCCCC1=NC(C)=C(OC)C(=O)C1O (stereo not drawn) [Compound (4), 3-hydroxy-6-methyl-5-methoxy 2-pentyl-4-pyridone] as the molecule, how does the inhibition at 50 µg/mL (HeLa cells; [9]) read?
A: The inhibition at 50 µg/mL was 51.2%.

Q: For Cc1occc(=O)c1O [Compound (8), 3-hydroxy-2-methyl 4H-pyran-4-one], which inhibition at 50 µg/mL (HeLa cells; [9]) is on record?
A: Its inhibition at 50 µg/mL is 3.1%.

Q: Which inhibition at 50 µg/mL (HeLa cells; [9]) does the source give for CCCCCc1c(O)c(=O)c(OC)c(C)n1C [Compound (5), 3-hydroxy-1,6-dimethyl-5-methoxy 2-pentyl-4-pyridone] here?
A: Its inhibition at 50 µg/mL is 24.9%.

Q: Which inhibition at 50 µg/mL (HeLa cells; [9]) does the source give for COc1ccc(C=Cc2cc(=O)c(O)co2)cc1 [Compound (11), 3-hydroxy-6-(p-methoxystyryl)-4H-pyran-4-one] here?
A: The inhibition at 50 µg/mL was 72.2%.

Q: For O=c1cc(C=Cc2ccc(Cl)cc2)occ1O [Compound (12), 3-hydroxy-6-(p-chlorostyryl)-4H-pyran-4-one], which inhibition at 50 µg/mL (HeLa cells; [9]) is on record?
A: The inhibition at 50 µg/mL was 90%.

Q: For CCCCCc1oc(C)c(OC)c(=S)c1O [Compound (3), 3-hydroxy-6-methyl-5-methoxy-2-pentyl-4H-pyran-4-thione], which inhibition at 50 µg/mL (HeLa cells; [9]) is on record?
A: The inhibition at 50 µg/mL was 75%.

Q: For Cc1occc(=S)c1O [Compound (9), 3-hydroxy-2-methyl-4H-pyran-4-thione], which inhibition at 50 µg/mL (HeLa cells; [9]) is on record?
A: Its inhibition at 50 µg/mL is 0%.

Q: For CCCCCc1c(O)c(=S)c(OC)c(C)n1C [Compound (7), 3-hydroxy-1,6-dimethyl-5-methoxy-2-pentyl 4-pyridinethione], which inhibition at 50 µg/mL (HeLa cells; [9]) is on record?
A: The inhibition at 50 µg/mL was 70.6%.

Q: For O=c1cc(CO)occ1O [Compound (13), 5-hydroxy-2-hydroxymethyl-4H-pyran-4-one], which inhibition at 50 µg/mL (HeLa cells) is on record?
A: Its inhibition at 50 µg/mL is 1.6%.

Q: For CCCCCc1oc(C)c(OC)c(=O)c1O [Compound (1), 3-hydroxy-6-methyl-5-methoxy-2-pentyl-4H-pyran-4-one], which “average number of carcinomas per mouse” value ([1]; 18th week (control 2.38)) is on record?
A: Its value is 0.22.

Q: What about the “percentage of mice in which carcinomas developed” value ([1]; 18th week (control 50%)) of the same molecule?
A: Its value is 13%.

Q: What about the “solubility in organic solvents” value ([2]; methanol, acetone, chloroform, hexane, and ethyl acetate) of the same molecule?
A: Its value is “soluble”.

Q: And the solubility in water ([2]; water)?
A: The solubility in water was “difficultly soluble”.

Q: And the inhibition at 50 µg/mL (HeLa cells; [9])?
A: The inhibition at 50 µg/mL was 83%.

Q: What about the LD50 (in vivo [3]) of the same molecule?
A: Its LD50 is ≥ 1000 mg/kg.

Q: And the activity at 50 µg/mL [4, 10]?
A: The activity at 50 µg/mL was 27.3%.

Q: And the “Number of cells (×10^5), Test group” value ([4]; two days (control 8.95))?
A: Its value is 2.45 ×10^5.

Q: What about the “Number of cells (×10^5), Test group” value (neuroblastoma cells GOTO; two days (control 10.95)) of the same molecule?
A: Its value is 4.85 ×10^5.

Q: And the activity at 50 µg/mL (neuroblastoma cells GOTO; Homo sapiens, Neuroblastoma cell, 48 h, two days, read-out: Number of cells, Test group/Control)?
A: The activity at 50 µg/mL was 44.3%.

Q: What about the “Number of cells (×10^5), Test group” value ([5]; two days (control 11.20)) of the same molecule?
A: The value was 4.70 ×10^5.

Q: What about the activity at 50 µg/mL [5, 10] of the same molecule?
A: The activity at 50 µg/mL was 42%.

Q: And the “inhibition of propagation of gastric carcinoma cells HGC-27” value [6]?
A: Its value is “fully effective in inhibiting the propagation”.

Q: What about the LD50 (in vivo [7]) of the same molecule?
A: The LD50 was ≥ 1000 mg/kg.

Q: And the “concentration dependence of inhibitory effect on gastric carcinoma cells HGC-27” value ([8]; 5, 10, 25, 50, and 75 μg/ml)?
A: Its value is “dependent on its concentration or dose”.

Q: And the minimal effective concentration ([8]; Homo sapiens, HGC-27, 48 h, 5 to 75 μg/ml, read-out: concentration with significant inhibitory effect on gastric carcinoma cells HGC-27)?
A: Its minimal effective concentration is ≤ 5 µg/mL.

Q: With O=c1cc(C=Cc2ccccc2)occ1O [Compound (10), 3-hydroxy-6-styryl-4H-pyran-4-one] as the molecule, how does the inhibition at 50 µg/mL (HeLa cells; [9]) read?
A: Its inhibition at 50 µg/mL is 59.3%.

From patent US5093505A, “Novel heterocyclic compound, carcinostatic agent, and carcinoma controlling method” (Wakunaga Seiyaku Kabushiki Kaisha, priority 1989, dated 1992)
